Measured values reported in patent publication US9018440B2, “Fluorescent mouse model” (Stowers Institute for Medical Research, priority 2006, dated 2015).

Assays:
[1] = test system: G-protein coupled muscarinic acetylcholine receptors; test: Acetylcholine challenge of HEK 293 cells co-transfected with TetO-G-CaMP2 and CMV-VP22-tTA, G-CaMP2 fluorescence; assay type: cell-based, human; settings: 10 μM acetylcholine, HEK 293 TetO-G-CaMP2 + CMV-VP22-tTA, excited at 488 nm
Method: Cells co-transfected with the two plasmids show fluorescence, while cells with only one of the plasmids, or neither, are not fluorescent (Control, FIG. 1A). The addition of 10 μM acetylcholine (ACH) induces a subpopulation of cells to respond with increases in fluorescence (FIG. 1B). Acetylcholine activates G-protein coupled muscarinic acetylcholine receptors and mobilizes intracellular calcium. Arrows point to three of the responsive cells (a, b, and c of both FIGS. 1A and 1B).
(AFU: artificial fluorescence unit).
Human embryonic kidney cells (HEK 293) were co-transfected with TetO-G-CaMP2 and a construct containing a tetracycline transactivator protein under the control of a ubiquitous promoter (CMV-VP22-tTA). […] The change in fluorescence indicated proper function of the G-CaMP2 sensor combined with the tetracycline inducible system.

[2] = test system: glomeruli / sensory neurons of the olfactory bulb; test: Odor stimulation of OMP-tTA-G-CaMP2 compound transgenic mice, fluorescence imaging of olfactory bulb; assay type: in vivo, mouse; settings: for subset of sensory neurons / glomeruli activated by odor: different odors alone or combined, FIGS. 9 and 12; for course of G-CaMP2 intensity as the activation sequence progressed: FIGS. 10E and 11E; for sequence of glomeruli activation over length of odor exposure: FIGS. 10 and 11; for activation of G-CaMP2 fluorescence in glomeruli by odor: odor delivered to the nose, thinned skull, FIG. 5
Method: The compound transgenic mice (“transgenic mice”) containing the G-CaMP2 indicator targeted to the olfactory neurons may be used to evaluate neuron stimulation and map the signals sent in the brain. The response of sensory neurons was analyzed by stimulating transgenic mice with odor of varying concentrations. After anesthetizing mice with an injection of ketamine, the skin over the olfactory bulb was removed and the underlying skull covering the olfactory bulb was surgically thinned. The mice were then secured on an imaging plate and placed underneath a fluorescent microscope for imaging analysis. Background fluorescence was detected before odor stimulation (FIG. 5A). […] Amyl Acetate of various concentrations was also delivered to the nose of the animals using a custom made olfactometer. […] Odor delivery excited the sensory neurons, which generated action potentials that reached both olfactory bulbs.
The concentration of odor presented also activated glomeruli in a dose dependent manner (FIGS. 12C and 12D).
Animals are anesthetized with Ketamin/Xylazine cocktail and the righting reflex of the hind limbs are tested prior to surgery. Once deeply anesthetized, the hair over the head is shaved with a razor blade and a midline incision is made in the skin covering the skull to expose the olfactory bulb. For direct imaging, a head holder is glued to the bone and the animal is mounted to the microscope stage with the olfactory bulb region positioned right under the lens. (FIGS. 9 and 10). For bone thinning imaging, micro dental tools wet with saline are used to scrape the surface of the bone covering the olfactory bulb. Occasional air puffs are used to cool the thinning surface to prevent heat damage of the brain tissue. We normally stop when the bone can be indented by the gentle tough of a forceps tip, which is about 50 μm thick. The surface is then gently cleaned with saline and the head holder is attached for mounting the animal to the microscope.

| Structure (SMILES) | subset of sensory neurons / glomeruli activated by odor [2] | course of G-CaMP2 intensity as the activation sequence progressed [2] | sequence of glomeruli activation over length of odor exposure [2] | activation of G-CaMP2 fluorescence in glomeruli by odor [2] | other results |
| --- | --- | --- | --- | --- | --- |
| CC(=O)OCC[N+](C)(C)C [acetylcholine] |  |  |  |  | increase in fluorescence, cell A ([1]; FIG. 2A): approximately 90 AFU; increase in fluorescence, cell B ([1]; FIG. 2B): approximately 95 AFU; increase in fluorescence, cell C ([1]; FIG. 2C): approximately 50 AFU |
| CCCCCC(=O)O [hexanoic acid] | activated |  |  |  |  |
| CCCC=O [butyraldehyde] | activated | continued to increase | sequentially activated glomeruli |  |  |
| CCCCCCCC=O [octanal] |  | decrease in G-CaMP2 expression | activated several different glomeruli sequentially | response of several glomeruli to activate G-CaMP2 fluorescence |  |
| CCCCCOC(C)=O [amyl acetate] | activated different neurons |  |  | several glomeruli activating G-CaMP2 fluorescence | response of right and left olfactory bulbs to various odor concentrations ([2]; various concentrations, olfactometer, FIG. 6): both the right and left olfactory bulbs were similarly stimulated |
